Data taken from patent publication US10000773B2, “Cytochrome P450 and use thereof for the enzymatic oxidation of terpenes” (FIRMENICH SA, priority 2011, dated 2018).

Assays:
vetiver P450s = experiment: Bioconversion of other monoterpene and sesquiterpene molecules using whole E. coli cells expressing the vetiver P450s and CPR; assay type: cell-based, Vetiveria zizanioides (L.) Nash; details: resting E. coli cells in potassium phosphate buffer as in Example 8
Protocol: The cells were harvested in exponential growing phase, centrifuged and resuspended in 0.5 volume of potassium phosphate buffer 50 mM pH 7.0 supplemented with 5% glycerol or 3% glucose. The substrate ((+)-zizaene) was added to a final concentration of 0.5 mg/ml as mixture composed of 10 mg Tween® 20 (sigma-Aldrich), 10 mg antifoam (Erol DF, PMC Ouvrie, Lesquin, France), 20 mg (+)-zizaene and 1 ml water. The conversion was allowed to proceed for 24 hours at 20° C. with moderate shaking. The media were extracted with 2 volumes of ethyl-acetate and the extracts were analyzed by GCMS on an Agilent 6890 Series GC system connected to an Agilent 5975 mass detector. The GC was equipped with 0.25 mm inner diameter by 30 m SPB-1 capillary column (Supelco, Bellefonte, Pa.). The carrier gas was He at a constant flow of 1 mL/min. The initial oven temperature was 50° C. (1 min hold) followed by a gradient of 10° C./min to 300° C. The identification of the products was based on the comparison of the mass spectra and retention indices with authentic standards and internal databases.
E. coli cells expressing the vetiver P450s and a CPR were prepared, grown and the bioconversions performed using resting cells in potassium phosphate buffer as described in Example 8.
Assays were performed with several terpene molecules and the formation of oxygenated terpene molecules was evaluated using GCMS analysis as described in Example 8.

[1] = system: heterologous P450 and CPR complex; assay type: cell-based, E. coli
Protocol: The oxidized products of (+)-zizaene can also be produced in E. coli cells engineered to produce sesquiterpenes from a carbon source such as glucose or glycerol. Plasmids were prepared consisting of the pCWori (Barnes H. J (1996) Method Enzymol. 272, 3-14) plasmid containing an operon composed of the P450, the P450-reductase and the terpene synthase. Two plasmids were thus prepared by inserting an RBS sequence and the optimized sequence encoding for the (+)-zizaene synthase (VzZS) after the stop codon of the CPR sequence in the pCW-2391-521-11 or pCW-2392-521-16.
The VzZS was amplified from pETDuet-VzZS-opt plasmid (as described in WO 2010/134004) using the primers 2401-VzZS-F (SEQ ID NO:33) and 2401-VzZS-R (SEQ ID NO:34). […]
OverExpress™ C43(DE3) E. coli cells (Lucigen® Corporation) were co-transformed with the plasmid pACYC-29258-4506 and the plasmid pCW-2401-521-11 or the plasmid pCW-2402-521-16. […] After 48 hours, the cultures were extracted with 2 volumes of tert-Butyl methyl ether (MTBE) and the extracts analyzed by GCMS as described in Example 8, except for the oven temperature that was initially set at 80° C. with one minute hold, followed by gradient of 10° C./min to 300° C.

VzP521-11-1 = experiment: Bioconversion of (+)-zizaene using whole E. coli cells expressing VzP521-11-1 and a CPR; assay type: cell-based, Vetiveria zizanioides (L.) Nash; details: 24 hours at 20° C.
Protocol: (§1) The oxidation of (+)-zizaene can be performed using whole E. coli cells expressing the vetiver P450s and a CPR (bioconversion). Zizaene was prepared using engineered E. coli cells following the method described in the patent WO 2010/134004 and using the sesquiterpene synthase with the sequence accession number HI931369.
(§2) E. coli cells (BL21Star™(DE3) E. coli cells (Invitrogen Ltd) or JM109(DE3) (Promega)) were transformed with the plasmids pCW-2391-521-11 or pCW-2392-521-16 or cells were co-transformed with the plasmids pCW-218-521-11 or pCW-218-521-16 and pACYC-tcATR1-opt and were grown in TB medium supplemented with 3% glycerol or LB medium supplemented with 1% glucose. The cultures were incubated at 37° C. until reaching an optical density of 1. The cultures were then transferred to 28° C., 1 mM IPTG and 74 μg/ml δ-aminolevulinic acid were added and the culture were incubated for 24 hours.
(§3) The cells were harvested in exponential growing phase, centrifuged and resuspended in 0.5 volume of potassium phosphate buffer 50 mM pH 7.0 supplemented with 5% glycerol or 3% glucose. […] The media were extracted with 2 volumes of ethyl-acetate and the extracts were analyzed by GCMS on an Agilent 6890 Series GC system connected to an Agilent 5975 mass detector. […]

VzP521-16-1 = experiment: Bioconversion of (+)-zizaene using whole E. coli cells expressing VzP521-16-1 and a CPR; assay type: cell-based, Vetiveria zizanioides (L.) Nash; details: 24 hours at 20° C.
Protocol: as §1, §2, §3

Row | Molecule | bioconversion, formation of oxygenated terpene molecules (GCMS) (vetiver P450s) | other results
1 | C=C(C)C1CC=C(C)CC1 (single isomer, unassigned; (+)) [(+)-limonene] | bioconversion was observed | 
2 | C=C1[C@H]2CC[C@H](C)[C@@]23CC[C@@H](C3)C1(C)C [(+)-zizaene] | bioconversion was observed | oxidation of the sesquiterpene produced in the engineered cells (GCMS) [1]: is oxidized by the heterologous P450 and CPR complex; oxidation products identified by GCMS (VzP521-11-1): khusimol, zizanal and zizanoic acid; oxidation of substrate (GCMS) (VzP521-11-1; substrate 0.5 mg/ml): oxidation of (+)-zizaene was observed; oxidation products identified by GCMS (VzP521-16-1): khusimol, zizanal and zizanoic acid; oxidation of substrate (GCMS) (VzP521-16-1; substrate 0.5 mg/ml): oxidation of (+)-zizaene was observed
3 | C=C1CC[C@@H]2[C@H]([C@@H]3[C@H](C)CC[C@H]13)C2(C)C [alloaromadendrene] | bioconversion was observed | 
4 | CC1=CC[C@@]23C[C@@H]1C(C)(C)[C@@H]2CC[C@H]3C [alpha-cedrene] | bioconversion was observed | 
5 | CC1=CC[C@H]2[C@H]3[C@@H]1[C@]2(C)CC[C@H]3C(C)C [alpha-copaene] | bioconversion was observed | 
6 | CC1=CC[C@]23C[C@H]1C(C)(C)[C@@H]2CC[C@H]3C [alpha-funebrene] | bioconversion was observed | 
7 | C/C1=C\CC/C(C)=C/CC(C)(C)/C=C/C1 [alpha-humulene] | bioconversion was observed | 
8 | CC1=CC[C@@H]2[C@@H]3[C@H]1[C@@]2(C)CCCC3(C)C [alpha-longipinene] | bioconversion was observed | 
9 | CC1=CCC2CC1C2(C)C (stereo not drawn) [alpha-pinene] | bioconversion was observed | 
10 | C=C1CCCC(C)(C)[C@@]12CC=C(C)CC2 [beta-chamigrene] | bioconversion was observed | 
11 | C=C1CC[C@@]23C[C@@H]1C(C)(C)[C@@H]2CC[C@H]3C [beta-funebrene] | bioconversion was observed | 
12 | C=C1CCC2CC1C2(C)C (stereo not drawn) [beta-pinene] | bioconversion was observed | 
13 | C=C(C)[C@H]1C=C2[C@H](C)CC[C@@H]2[C@H](C)CC1 [gamma-gurjunene] | bioconversion was observed | 
14 | C=C1[C@H]2C[C@H]3[C@@H](C(C)C)CC[C@]1(C)[C@H]3C2 [isosativene] | bioconversion was observed | 
15 | CC1=C2CC[C@@H](C)[C@H]2[C@H]2[C@@H](CC1)C2(C)C [ledene] | bioconversion was observed | 
16 | CC1=CC[C@]2(C)CCCC(C)(C)[C@@]23C[C@@H]13 [thujopsene] | bioconversion was observed | 
17 | C=C(C)[C@@H]1CCC2=CCC[C@@H](C)[C@]2(C)C1 [valencene] | bioconversion was observed | 
18 | (−)-limonene | bioconversion was observed | 
19 | alpha gurjunene | bioconversion was observed | 
20 | alpha neoclovenene | bioconversion was observed | 
